Converted amounts (≈) assume the structure as drawn.
System: E. coli K12
Test: microbe, parasite or virus in culture
Settings: Escherichia coli, K12, 24 h, read-out: minimum inhibitory concentration (MIC)
Experimental: Overnight cultures of E. coli K12 were started in 5 mL LB containing no antibiotic 12-16 hours before the experiment was performed. LB broth was inoculated using aseptic technique. The culture was incubated overnight in a shaking incubator at 37 C.
The next morning 10 mL of M9 was inoculated with 100 μL of cells from the overnight culture. The tube was inverted to mix the cells prior to incubation at 37 C in the shaking incubator. While the cells were growing 96 well plates were prepared for inoculation.
A solution of concentrated M9 was made by combining 4 mL of 5×M9 salts, 40 μL of 20% glucose, 40 μL 1M MgSO4, and 2 μL of 1M CaCl2.
The plate was loaded as follows: 45 μL of concentrated M9 mixture was added to each well containing the compound concentrations and the following dilutions were performed:
Controls were prepared and loaded onto the plate as follows: 135 μL of H2O was added to positive control wells. 45 μL of the concentrated M9 mixture was added to each positive control well. 200 μL of water was added to each negative control well.
The OD600 of the cells from the overnight culture that was inoculated into M9 was checked using the spectrophotometer. The final OD600 of the cells was between 0.195 and 0.200. To achieve a final OD within this range the spectrophotometer was blanked with water. […]

OCCCCO [1,4-BDO, 1,4-butanediol]
MIC: 50 mg/mL (≈ 555 mM)

Reference: US20140120595A1 (priority 2008, published 2014)
